Source: US8575097B2, “Exendin variant and conjugate thereof” (Pegbio Co., Ltd., priority 2009, dated 2013)

Assay: Effect on body weight of guinea pigs (Example 23)
Assay type: in vivo, guinea pig
Conditions: 4 days after two successive dosing, 100 μg/kg s.c. (albumin 80 mg/kg), compared with saline group
Source text: 44 male healthy guinea pigs were provided, and the body weight of each guinea pig was about 300 g.

Substance: chicken ovalbumin [chicken ovalbumin, albumin group in the guinea pig allergy test]
- decrease of body weight: did not decrease
